Measurements: patent US20240285630A1, “Methods and compositions for improving exercise performance” (MEZZION PHARMA CO., LTD., priority 2021, published 2024)

Assays:
[1] = system: adolescents with Fontan physiology; details: cited from earlier work
[2] = system: adolescents with Fontan physiology; experiment: FUEL Trial resting data (heart rate, blood pressure, oxygen saturation); format: in vivo, human; details: baseline to 26-week
Excerpt: Baseline clinical testing completed before drug initiation included a blood draw to measure brain-type natriuretic peptide (BNP) level, a cardiopulmonary exercise test (CPET) using a standardized cycle ergometer ramp protocol, a standardized echocardiogram, and an assessment of peripheral vascular function using peripheral arterial tonometry (PAT) measured by finger cuff (EndoPAT; Itamar Medical, Israel). Participants who achieved maximal effort, defined as respiratory exchange ratio (RER)≥1.10 at peak exercise during CPET, were eligible for randomization and study drug initiation. […] End-of-study clinical testing included repeat measurement of serum BNP, CPET, echocardiogram, and PAT.
The primary analysis used the intention-to-treat population to evaluate the difference in the change in the primary outcome between treatment arms. This difference was assessed with an analysis of covariance (ANCOVA) with fixed factors for ventricular morphology (single left versus single right or mixed) and treatment group, with a continuous covariate of baseline max VO2. For those without data at the 26-week visit, this value was imputed as equal to the baseline value (no change). […] Secondary outcomes of continuous data points were analyzed in the manner described for the primary outcome. […]

[3] = system: adolescents with Fontan physiology; experiment: FUEL Trial echocardiographic myocardial performance index (MPI), blood pool Doppler; format: in vivo, human
Excerpt: Generally speaking, MPI (also referred to as the Doppler-derived index or Tei Index) is a measure of ventricular systolic and diastolic function as determined by a focused echocardiogram. It combines systolic and diastolic time intervals to assess heart function. More specifically, MPI can be used to assess ventricular performance represented by a numeric value using cardiac time intervals. This numeric value equals the sum of isovolumetric contraction time (ICT) and isovolumetric relaxation time (IRT) divided by ejection time (ET) and can be determined for either the left or right ventricle. Pellett, A. A., et al.: The Tei Index: Methodology and Disease. State Values. Echocardiography: A Jrnl. of CV Ultrasound & Allied Tech. 21(7):669-672 (2004); and Ulugay, A., Tatli E.: Myocardial performance index. Anadolu Kardiyol Derg. 8(2):143-8 (April 2008), both of which are incorporated herein by reference in their entireties. In the FUEL Trial, the MPI measured the performance of the single functioning ventricle. Thus, the MPI results from the FUEL Trial were determined by velocities obtained from blood pool Doppler assessment of the inflow and outflow tract of the functioning single ventricle. In other words, the FUEL Trial MPI was determined by measuring the cardiac time intervals using pulsed-wave Doppler velocity spectra of the ventricular inflow and outflow of the single functioning ventricle.
Echocardiograms were performed by sonographers with specific training for this protocol. The primary outcome of interest was MPI using Doppler-based measures of inflow and outflow duration. The duration of inflow into the dominant ventricle and outflow across the dominant semilunar valve were measured and used to calculate MPI using the standard formula. Tei C, Ling L H, Hodge D O, et al.: New index of combined systolic and diastolic myocardial performance: a simple and reproducible measure of cardiac function-a study in normals and dilated cardiomyopathy. J Cardiol, 26(6):357-66 (1995); and Pellet A A et al.: The Tei Index: Methodology and Disease State Values. Echocardiography: A Jrnl Of CV Ultrasound & Allied Tech, 21(7):669-672 (2004). Additional tissue Doppler images were obtained and used to calculate the tissue Doppler based MPI as previously described. Harada K, Tamura M, Toyono M et al.: Comparison of the right ventricular Tei index by tissue Doppler imaging to that obtained by pulsed Doppler in children without heart disease. Am J Cardiol, 90(5):566-9 (2002).
Whenever possible, three measurements were made and the mean duration was used for the calculation.
Each subject underwent an echocardiogram at the start and finish of the 26 weeks. […] Table 3. […] The change in the MPI was determined by velocities obtained from blood pool Doppler assessment of the inflow and outflow tract of the single functioning dominant ventricle. All measurements were made by the echocardiography core lab at the Children's Hospital of Wisconsin.

[4] = system: adolescents with Fontan physiology; experiment: FUEL Trial serum brain-type natriuretic peptide (BNP) level; format: in vivo, human; details: ANCOVA; listed as udenafil

Structure (SMILES): CCCOc1ccc(S(=O)(=O)NCCC2CCCN2C)cc1-c1nc2c(CCC)nn(C)c2c(=O)[nH]1 (stereo not shown) [Udenafil, udenafil]
- Average serum concentration ([1]; 87.5 mg twice daily compared with other tested regimens): highest average serum concentration
- Dose limiting adverse events ([1]; 87.5 mg twice daily): not associated with dose limiting adverse events
- Tolerability ([1]; all tested dosing regimens): demonstrated tolerability at all tested dosing regimens
- Change in resting heart rate, respiratory rate, or systolic blood pressure, udenafil vs placebo [2]: no difference
- MPI, median of the difference Week 26 - baseline ([3]; ITT population): −0.01
- MPI difference Week 26 - baseline, LS Mean Dif A − B (SE), udenafil minus placebo ([3]; ITT population, ANCOVA): −0.03 (0.014)
- MPI at Week 26, LS Mean Dif A − B (SE), udenafil minus placebo ([3]; ITT population, ANOVA): −0.04 (0.018)
- MPI at Week 26, mean ([3]; ITT population, N=146): 146: 0.42
- MPI, difference Week 26 - baseline, mean ([3]; all participants with paired data n=122, decrease shows improvement, p=0.028 vs placebo): −0.02
- MPI, difference in change (treatment - placebo) ([3]; baseline peak VO2 <80% predicted, N=189): −0.04
- MPI, difference in change (treatment - placebo) ([3]; baseline peak VO2 ≥80% predicted, N=60): 0.01
- MPI, 26 week - baseline ([3]; excluding those with baseline peak VO2 ≥80% predicted, n=94): −0.03
- Log brain natriuretic peptide, difference LS Mean (SE), udenafil vs placebo [4]: not different between groups
